Results published in patent US20250170112A1, “ADENOSINE LIGANDS FOR THE TREATMENT OF NEUROLOGICAL DISORDERS” (Lucy Therapeutics, Inc., priority 2022, published 2025).
pEC50: −log10 of the molar value.

Legend:
[1] = target: T1, human Adenosine A1 receptor (Homo sapiens, UniProt P30542); assay: GTPγS scintillation proximity assay, agonist testing; type: biochemical; details: agonist activity; membrane extracts of CHO-K1 cells expressing recombinant human A1; read-out: A1AR EC50
T1 construct: host or cells: CHO-K1
T1 sequence (P30542 1-326): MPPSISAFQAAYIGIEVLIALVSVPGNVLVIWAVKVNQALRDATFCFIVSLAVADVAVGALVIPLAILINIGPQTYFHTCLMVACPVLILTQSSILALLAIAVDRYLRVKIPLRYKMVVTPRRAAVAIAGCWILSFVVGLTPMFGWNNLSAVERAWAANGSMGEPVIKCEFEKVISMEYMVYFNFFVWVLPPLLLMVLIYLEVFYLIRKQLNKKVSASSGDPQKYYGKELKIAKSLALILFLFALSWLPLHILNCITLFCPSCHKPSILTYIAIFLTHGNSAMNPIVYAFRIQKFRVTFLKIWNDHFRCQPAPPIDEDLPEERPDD
In short: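 Agonist-stimulated [35S]GTPγS binding to membranes of CHO-K1 cells expressing recombinant human A1 receptor, in 20 mM HEPES pH 7.4, 100 mM NaCl, 10 μg/mL saponin, with receptor-optimized MgCl2 and GDP. GTPγ[35S] 0.1 nM final with WGA SPA beads; 1 h at room temperature, then scintillation counting.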

human A2B = target: T2, human A2B (Homo sapiens, UniProt P29275); assay: cAMP HTRF assay for Gs coupled receptor, agonist test; type: cell-based; details: agonist activity; HEK293 cells expressing recombinant human A2B; read-out: A2BAR EC50
T2 construct: expressed in transfected cells; host or cells: HEK293
T2 sequence (P29275 1-332): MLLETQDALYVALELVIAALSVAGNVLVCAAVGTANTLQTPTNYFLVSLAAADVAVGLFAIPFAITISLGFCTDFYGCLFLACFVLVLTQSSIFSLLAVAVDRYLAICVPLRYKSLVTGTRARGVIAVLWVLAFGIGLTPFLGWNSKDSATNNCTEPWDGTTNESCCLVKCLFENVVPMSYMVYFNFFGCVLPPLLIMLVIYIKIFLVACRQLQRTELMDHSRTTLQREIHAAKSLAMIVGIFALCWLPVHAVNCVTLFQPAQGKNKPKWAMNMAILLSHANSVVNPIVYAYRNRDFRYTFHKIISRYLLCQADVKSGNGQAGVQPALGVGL
In short: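 Recombinant cells were incubated 30 min at room temperature with increasing agonist concentrations. Lysis buffer with cAMP-d2 and anti-cAMP cryptate was added, with 1 h at room temperature before the HTRF fluorescence ratio was read. Reference compounds were run in parallel.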

Row | Compound | pEC50 [1] | pEC50 (human A2B)
1 | COCCOc1ccc(-c2c(C#N)c(SCc3cccnn3)nc(C3CC3)c2C#N)cc1 [Compound 233] | < 5.00 | < 5.00
2 | N#Cc1c(N)nc(SCc2cccc3[nH]ncc23)c(C#N)c1-c1ccc(OCCO)cc1 [Compound 15] | 5.98 | 6.85
3 | N#Cc1c(N)nc(SCc2cccnc2)c(C#N)c1-c1ccc(O[C@H]2C[C@@H](O)C2)cc1 [Compound 296, 2-Amino-4-(4-((1s,3s)-3-hydroxycyclobutoxy)phenyl)-6-((pyridin-3-ylmethyl)thio)pyridine-3,5-dicarbonitrile] | 7.69 | 8.61
4 | N#Cc1c(N)nc(SCc2cncc3[nH]ccc23)c(C#N)c1-c1ccc(OCCO)cc1 [Compound 2] | < 5.00 | 9.55
5 | N#Cc1c(N)nc(CCc2cccnc2)c(C#N)c1-c1ccc(OCCO)cc1 [Compound 125] | < 5.00 | 6.33
6 | N#Cc1c(N)nc(SCc2cccnc2)c(C#N)c1-c1ccc(OCC(O)C(F)(F)F)cc1 (centres unmarked) [Compound 65] | 6.51 | 8.72
7 | N#Cc1c(N)nc(SCc2ccnc3[nH]ccc23)c(C#N)c1-c1ccc(OCCO)cc1 [Compound 14] | 7.53 | 7.09
8 | N#Cc1c(N)nc(SCc2cccnc2)c(C#N)c1-c1ccc(OCCOC(F)F)cc1 [Compound 40] | 7.67 | < 5.00
9 | COCCOc1ccc(-c2c(C#N)c(N)nc(SCc3ccncc3)c2C#N)cc1 [Compound 197] | 7.28 | < 5.00
10 | N#Cc1c(N)nc(SCc2cccnc2)c(C#N)c1-c1ccc(O[C@H]2C[C@H](O)C2)cc1 [Compound 295, 2-Amino-4-(4-((1r,3r)-3-hydroxycyclobutoxy)phenyl)-6-((pyridin-3-ylmethyl)thio)pyridine-3,5-dicarbonitrile] | 8.80 | 8.01
11 | N#Cc1c(N)nc(SCc2c[nH]c3ccccc23)c(C#N)c1-c1ccc(OCCO)cc1 [Compound 206] | 6.01 | 6.31
12 | CN(C)c1nc(SCc2cccnc2)c(C#N)c(-c2ccc(OCCOC(F)F)cc2)c1C#N [Compound 253] | < 5.00 | < 5.00
13 | COCCOc1ccc(-c2c(C#N)c(N)nc(SCCNC(C)=O)c2C#N)cc1 [Compound 120] | 6.00 | < 5.00
14 | COc1cccc(CSc2nc(N)c(C#N)c(-c3ccc(OC4COC4)cc3)c2C#N)c1 [Compound 33] | 8.10 | 6.25
15 | COCCOc1ccc(-c2c(C#N)c(N)nc(SCc3cncc4[nH]ccc34)c2C#N)cc1 [Compound 216] | < 5.00 | < 5.00
16 | N#Cc1cnc(SCc2cccnc2)c(C#N)c1-c1ccc(OC2COC2)cc1 [Compound 18] | 7.16 | 6.52
17 | COCCOc1ccc(-c2c(C#N)c(N)nc(SCc3ccc4cc[nH]c4c3)c2C#N)cc1 [Compound 44] | 7.46 | < 5.00
18 | CN(Cc1cccnc1)c1nc(N)c(C#N)c(-c2ccc(OCCO)cc2)c1C#N [Compound 160] | 6.89 | 7.25
19 | COCCOc1ccc(-c2c(C#N)c(N)nc(SCCC#N)c2C#N)cc1 [Compound 122] | 5.99 | < 5.00
20 | N#Cc1c(N)nc(SCc2cccnc2)c(C#N)c1-c1ccc(OC(F)(F)CO)cc1 [Compound 309] | 8.19 | 9.02

The next lines start with the values.

Row | pEC50 [1] | pEC50 (human A2B) | Compound
21 | 5.45 | < 5.00 | COCCOc1ccc(-c2c(C#N)c(SCc3cnccn3)nc(N3CCC3)c2C#N)cc1 [Compound 21]
22 | 6.09 | < 5.00 | COCCOc1ccc(-c2c(C#N)c(SCCO)nc(N3CCC3)c2C#N)cc1 [Compound 89]
23 | 6.69 | < 5.00 | N#Cc1c(N)nc(OCC2COC2)c(C#N)c1-c1ccc(OC2COC2)cc1 [Compound 312, 2-Amino-6-(oxetan-3-ylmethoxy)-4-(4-(oxetan-3-yloxy)phenyl)pyridine-3,5-dicarbonitrile]
24 | < 5.00 | 5.37 | COCCOc1ccc(-c2c(C#N)c(N)nc(SCC(=O)O)c2C#N)cc1 [Compound 68]
25 | < 5.00 | < 5.00 | N#Cc1c(N)nc(SCC2COC2)c(C#N)c1-c1ccc(OC(F)(F)COC(F)F)cc1 [Compound 289, 2-Amino-4-(4-(2-(difluoromethoxy)-1,1-difluoroethoxy)phenyl)-6-((oxetan-3-ylmethyl)thio)pyridine-3,5-dicarbonitrile]
26 | 8.14 | < 5.00 | N#Cc1c(N)nc(SCC2COC2)c(C#N)c1-c1ccc(OC(F)(F)CO)cc1 [Compound 311, 2-Amino-4-[4-(1,1-difluoro-2-hydroxy-ethoxy)phenyl]-6-(oxetan-3-ylmethylsulfanyl)pyridine-3,5-dicarbonitrile]
27 | 8.12 | 7.74 | N#Cc1c(SCc2cccnc2)nc(N2CCCC2)c(C#N)c1-c1ccc(OCCO)cc1 [Compound 114]
28 | 6.81 | < 5.00 | N#Cc1c(N)nc(SCC2COC2)c(C#N)c1-c1ccc(OC2CCOC2)cc1 (centres unmarked) [Compound 219]
29 | 7.03 | < 5.00 | N#Cc1c(SCC2COC2)nc(N2CCCC2)c(C#N)c1-c1ccc(OC2COC2)cc1 [Compound 292]
30 | 7.04 | 5.53 | N#Cc1c(SCC2COC2)nc(N2CCC2)c(C#N)c1-c1ccc(OCCO)cc1 [Compound 63, 2-(Azetidin-1-yl)-4-[4-(2-hydroxyethoxy)phenyl]-6-(oxetan-3-ylmethylsulfanyl)pyridine-3,5-dicarbonitrile]
31 | 6.85 | 5.95 | N#Cc1c(N)nc(SCC2CCOCC2)c(C#N)c1-c1ccc(OC2COC2)cc1 [Compound 305]
32 | 7.46 | 8.09 | N#Cc1c(SCc2cccnc2)nc(C2CC2)c(C#N)c1-c1ccc(OCCO)cc1 [Compound 45, 2-Cyclopropyl-4-[4-(2-hydroxyethoxy)phenyl]-6-(3-pyridylmethylsulfanyl)-pyridine-3,5-dicarbonitrile]
33 | < 5.00 | < 5.00 | N#Cc1c(N)nc(SCCC(F)(F)F)c(C#N)c1-c1ccc(O[C@H]2C[C@H](O)C2)cc1 [Compound 328]
34 | 7.14 | < 5.00 | N#Cc1c(SCc2cccnn2)nc(N2CC(F)C2)c(C#N)c1-c1ccc(OCCOC(F)F)cc1 [Compound 241]
35 | < 5.00 | 5.23 | N#Cc1cnc(SCC2CCCO2)c(C#N)c1-c1ccc(OCCO)cc1 (centres unmarked) [Compound 1]
36 | 8.29 | < 5.00 | CNc1nc(SCC2COC2)c(C#N)c(-c2ccc(OC3COC3)cc2)c1C#N [Compound 314]
37 | 7.28 | < 5.00 | N#Cc1c(N)nc(SCC2CCOC2)c(C#N)c1-c1ccc(OCCO)cc1 (centres unmarked) [Compound 28]
38 | < 5.00 | 5.65 | Cc1ncccc1CSc1nc(N2CCC2)c(C#N)c(-c2ccc(OCCO)cc2)c1C#N [Compound 77]
39 | < 5.00 | 5.25 | N#Cc1c(N)nc(SCC2COC2)c(C#N)c1-c1ccc(OC2CCCOC2)cc1 (centres unmarked) [Compound 308]
40 | < 5.00 | < 5.00 | COC1CC(Oc2ccc(-c3c(C#N)c(N)nc(SCC4CCOC4)c3C#N)cc2)C1 (centres unmarked) [Compound 321]
41 | 7.66 | < 5.00 | CC1(CSc2nc(N)c(C#N)c(-c3ccc(OC4COC4)cc3)c2C#N)COC1 [Compound 226]
42 | 8.82 | 6.40 | N#Cc1c(N)nc(SCC2COC2)c(C#N)c1-c1ccc(OCCO)cc1 [Compound 319]
43 | 7.01 | < 5.00 | COCCOc1ccc(-c2c(C#N)c(SCc3cccnc3)nc(N3CC(F)(F)C3)c2C#N)cc1 [Compound 276]
44 | 8.96 | < 5.00 | N#Cc1c(N)nc(SCC2COC2)c(C#N)c1-c1ccc(OC2COC2)cc1 [Compound 25]
45 | 9.12 | 6.93 | N#Cc1c(N)nc(SC[C@H]2CCOC2)c(C#N)c1-c1ccc(OC2COC2)cc1 [Compound 225]
46 | 7.12 | < 5.00 | N#Cc1c(SCC2COC2)nc(N2CC(O)C2)c(C#N)c1-c1ccc(OCCO)cc1 [Compound 274]
47 | 7.92 | 8.41 | N#Cc1c(N)nc(SCc2cnccn2)c(C#N)c1-c1ccc(OCCO)cc1 [Compound 172]
48 | 7.09 | < 5.00 | N#Cc1c(N)nc(SCC2(O)COC2)c(C#N)c1-c1ccc(OC2COC2)cc1 [Compound 315]
49 | 6.09 | < 5.00 | N#Cc1c(OCC2COC2)nc(N2CCC2)c(C#N)c1-c1ccc(OC2COC2)cc1 [Compound 287, 2-(azetidin-1-yl)-6-(oxetan-3-ylmethoxy)-4-(4-(oxetan-3-yloxy)phenyl)pyridine-3,5-dicarbonitrile]
